Where two headings read alike, the source gives them in different places.
Assay: In vivo food effects study in healthy subjects (Test Example 3)
Parameters: species or system human (healthy male subjects)
Details: after Test Formulation 300 mg single oral; for AUC—% Extrap of SNAC / CLz/F of SNAC / λz of SNAC: healthy male subjects, Mean ± SD; for AUC(0-t) / AUC(0-inf) / Cmax / MRT last / MRT inf / Vd/F / half-life / Tmax: male, human, plasma, po, 300 mg; for AUC(0-t): read-out: AUC0-t of SNAC; for AUC(0-inf): read-out: AUC0-∞ of SNAC; for Cmax: read-out: Cmax of SNAC; for MRT last: read-out: MRT0-t of SNAC; for MRT inf: read-out: MRT0-∞ of SNAC; for Vd/F: read-out: Vz/F of SNAC; for half-life: read-out: t1/2 of SNAC (converted); for Tmax: read-out: Tmax of SNAC
Description: To study the effect of food on the pharmacokinetic characteristics of abiraterone acetate tablets through a single oral administration of abiraterone acetate tablets under fasting state or after meal, or a single oral administration of abiraterone acetate tablets (Zytiga®) produced by Patheon Inc. under modified fasting state, in healthy subjects.
A single-center, randomized, open-label, three-period, self-controlled crossover trial design was applied. A total of 24 healthy male subjects were planned to be enrolled in the study. The washout period between each dose group was seven days. Blood samples were collected at a series of time points, and safety test was performed. The HPLC-MS/MS method was used to determine the plasma concentration of abiraterone and SNAC at different time points after drug administration. The non-compartmental model was used to calculate the pharmacokinetic parameters, and statistical analysis was performed.
The subjects were orally administered a single dose of the test formulation (T) under fasting state at a dose of 300 mg (150 mg×2 tablets), a single dose of the test formulation (T) of 300 mg abiraterone acetate tablets (I) (150 mg×2 tablets) after a high-fat meal (the total calories were approximately 800˜1,000 kcal, wherein approximately 50% of the calories were derived from fat; the test meal of each test cycle for the postprandial administration should be consistent; a high-fat meal was given 30 minutes before drug administration and should be finished within 30 minutes), or a single dose of the reference preparation of 1,000 mg abiraterone acetate tablets (Zytiga®) (250 mg×4 tablets) under modified fasting state (a medium-fat meal was given two hours before drug administration and one hour after drug administration; the total calories were approximately 450 kcal wherein 30% of the calories were derived from fat; the meal should be finished within 30 minutes), with 240 mL of warm water, in the morning on the day of drug administration for each cycle. Liquid was prohibited before administration and one hour after drug administration, and a standard lunch and dinner (a standardized light diet) were given approximately 4 and 10 hours after drug administration. The drug was swallowed whole instead of being sucked or chewed.
Test Formulation (T): Abiraterone acetate tablets (Formulation 5), specification: 150 mg;
Reference Preparation (R): Abiraterone Acetate Tablets; produced by Patheon Inc.; trade name: Zytiga®; specification: 250 mg.
The PKPS was used for the statistical analysis of pharmacokinetic parameters.
(§1) With the dosing order, dosing cycle and dosing regimen as fixed effects, the subjects were included as random effects in the linear mixed model as random effects. The least-squares mean ratio of Cmax, AUC0-t and AUC0-∞ of abiraterone in plasma after oral administration of the test formulation T under a high-fat meal or fasting states, and its 90% confidence interval were calculated.
as §1, with “dosing orders,” for “dosing order,”, “mixed model.” for “mixed model as random effects.”, “meal and oral administration of the reference formulation R under modified” for “meal or”

[1] = after a high-fat meal, N = 24, Mean ± SD
[2] = fasting state, N = 23, Mean ± SD

SMILES: O=C([O-])CCCCCCCNC(=O)c1ccccc1O.[Na+] [SNAC, sodium 8-(salicylamido)caprylate]
- AUC—% Extrap of SNAC (after a high-fat meal, N = 24): 0.46 ± 0.63%
- CLz/F of SNAC (after a high-fat meal, N = 24): 198.03 ± 28.78 mL/h
- λz of SNAC (after a high-fat meal, N = 24): 0.27 ± 0.12 h⁻¹
- AUC—% Extrap of SNAC (fasting state, N = 23): 0.66 ± 0.54%
- CLz/F of SNAC (fasting state, N = 23): 255.02 ± 72.16 mL/h
- λz of SNAC (fasting state, N = 23): 0.19 ± 0.08 h⁻¹
- AUC(0-t) [1]: 1540 ± 247 ng·h/mL
- AUC(0-inf) [1]: 1550 ± 245 ng·h/mL
- Cmax [1]: 1120 ± 574 ng/mL
- MRT last [1]: 2.28 ± 0.99 h
- MRT inf [1]: 2.36 ± 1 h
- Vd/F [1]: 0.87 ± 0.362 L
- half-life [1]: 3.06 ± 1.19 h
- Tmax (after a high-fat meal, N = 24, median): 1.13 h
- AUC(0-t) [2]: 1250 ± 305 ng·h/mL
- AUC(0-inf) [2]: 1250 ± 306 ng·h/mL
- Cmax [2]: 1580 ± 697 ng/mL
- MRT last [2]: 1.59 ± 1.35 h
- MRT inf [2]: 1.74 ± 1.38 h
- Vd/F [2]: 1.62 ± 0.949 L
- half-life [2]: 4.22 ± 1.71 h
- Tmax (fasting state, N = 23, median): 0.5 h
